Laboratory results from patent US20220296595A1, “CDK INHIBITORS” (QILU REGOR THERAPEUTICS INC., priority 2019, published 2022).
Read-outs that look alike come from different tables or passages of the source.

Legend:
CDK2/CyclinE1 = target: T1, CDK2/CyclinE1 (Homo sapiens, UniProt P24941); assay: Assay for inhibition of CDK2/CyclinE1 (Caliper microfluidic kinase assay); format: biochemical
T1 construct: purchased SignalChem C29-18G
Summary of the method: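 IC50 came from 4-parameter fits of substrate-to-product conversion, separated on a Caliper chip after an EDTA stop. Reactions ran 3 hours at room temperature with 100 μM ATP, 5 μM fluorescent FL-18 peptide and 5 nM enzyme in 100 mM HEPES pH 7.5, 10 mM MgCl2.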

CDK6/CyclinD3 = target: T2, CDK6/CyclinD3 (Homo sapiens, UniProt Q00534); assay: Assay for inhibition of CDK6/CyclinD3 (Caliper microfluidic kinase assay); format: biochemical
T2 construct: purchased Carna 04-107
Description: The CDK6 enzyme assay for IC50 determination was performed as follows. Microfluidic kinase detection technology (Caliper) was used to monitor the phosphorylation of peptide substrate by CDK6/CyclinD3. The total reaction volume is 15 μL containing buffer A (100 mM HEPES (pH 7.5), 0.1% BSA, 0.01% Triton X-100, 1 mM DTT, 10 mM MgCl2, 10 μM Sodium Orthovanadate, 10 μM Beta-Glycerophosphate), 300 μM ATP, 2 nM CDK6/CyclinD3 (Carna, 04-107), 1 μM FL-34 (5-FAM-[…]), and the test compound at appropriate dilutions in DMSO. All components were added to the 384-well plate (Corning, 4514), and incubated at Room Temperature for 3 hours. The reaction was terminated by addition of 15 μL Stop Buffer (180 mM HEPES (pH 7.5), 20 mM EDTA, Coating-3 reagent (PerkinElmer, 760050)). The plate was then loaded on Caliper EZ Reader (EZ Reader II, PerkinElmer, HD-4HYSG2772), and the reaction mixtures including substrate and product were sipped into the microfluidic chip for separation and detection. The IC50 values of the test compound were determined by fitting the inhibition curves by 4 parameter sigmoidal dose-response model using the Xlfit5/GraphPad Prism 5 software.

CDK4/CyclinD1 = target: T3, CDK4/CyclinD1 (Homo sapiens, UniProt P11802); assay: Assay for inhibition of CDK4/CyclinD1 (Caliper microfluidic kinase assay); format: biochemical
T3 construct: purchased Thermofisher PR8064A
Summary of the method: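 IC50 was obtained by 4-parameter sigmoidal fitting after 1 nM CDK4/CyclinD1, 200 μM ATP and 1 μM FL-34 substrate reacted for 3 h at room temperature (pH 7.5 HEPES, 10 mM MgCl2). After EDTA quench, substrate and product were separated and detected on a Caliper microfluidic chip.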

T47D breast cancer cells = assay: Anti-proliferation assay in T47D cell (Cyquant, day 6); format: cell-based, human; settings: anti-proliferation, T47D cells, read-out: T47D IC50
Text: T47D is a human breast cancer cell line commonly used in biomedical research involving the hormonal expression of cancer cells. T47D cells are distinct from other human breast cancer cells in that their progesterone receptors (PR) are not regulated by estradiol, a hormone that is abundant within the cells themselves. T47D cells have been employed in studies of the effects of progesterone on breast cancer and the corresponding transcriptional regulation caused by introduced drugs. The cells have been noted to be extremely resistant to estrogens and antiestrogens.
T47D breast cancer cells from American Type Culture Collection (ATCC, HTB-133) were plated at 3000 cells/well in 96-well plates, and were incubated in RPMI 1640 medium (Gibco, 31800105) with 10% Fetal Bovine Serum (FBS, Biowest, FB-1058) at 37° C., 5% CO2. After overnight incubation, baseline values were measured of the samples from one plate using Cyquant reagent (Invitrogen, C35011) following manufacturer's recommendations. Cells were incubated with the detection reagent for 1 hour at 37° C., and then the fluorescence was measured with excitation at 485 nm and emission at 535 nm using Spectra Max M5 (Molecular Devices, HD-4HYSG3196). Other plates were dosed with compounds at a ten-point dose concentration from 10 μM to 0.51 nM in a 3-fold dilution scheme. On day 6 after compound addition, Cyquant reagent was added and the fluorescence was measured using Spectra Max M5. The IC50 values of the test compound's anti-proliferation activity were determined from the baseline subtracted viability readout curve using Xlfit5/GraphPad Prism 5 software.

[1] = CDK2/CyclinE1, 100 μM ATP, read-out: CDK2 IC50
[2] = CDK2/CyclinE1, read-out: CDK2 IC50

T2 sequence (Q00534 whole entry): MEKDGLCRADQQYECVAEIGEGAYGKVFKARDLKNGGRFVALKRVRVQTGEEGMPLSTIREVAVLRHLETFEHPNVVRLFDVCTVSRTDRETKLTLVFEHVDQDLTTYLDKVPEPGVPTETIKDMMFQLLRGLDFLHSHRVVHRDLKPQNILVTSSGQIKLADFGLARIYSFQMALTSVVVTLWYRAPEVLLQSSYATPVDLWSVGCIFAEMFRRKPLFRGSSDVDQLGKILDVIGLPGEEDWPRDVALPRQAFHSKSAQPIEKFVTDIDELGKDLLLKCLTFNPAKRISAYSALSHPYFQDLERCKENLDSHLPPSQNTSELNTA
T2 sequence (P30281 whole entry partner): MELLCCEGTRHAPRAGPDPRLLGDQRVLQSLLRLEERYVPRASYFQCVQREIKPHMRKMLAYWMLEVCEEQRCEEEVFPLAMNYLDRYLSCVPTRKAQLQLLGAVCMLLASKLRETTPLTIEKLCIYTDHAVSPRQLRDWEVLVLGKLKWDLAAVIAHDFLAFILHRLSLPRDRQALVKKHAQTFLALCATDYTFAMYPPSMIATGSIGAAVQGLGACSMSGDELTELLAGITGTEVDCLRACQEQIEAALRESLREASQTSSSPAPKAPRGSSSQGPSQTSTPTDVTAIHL
T3 sequence (P11802 whole entry): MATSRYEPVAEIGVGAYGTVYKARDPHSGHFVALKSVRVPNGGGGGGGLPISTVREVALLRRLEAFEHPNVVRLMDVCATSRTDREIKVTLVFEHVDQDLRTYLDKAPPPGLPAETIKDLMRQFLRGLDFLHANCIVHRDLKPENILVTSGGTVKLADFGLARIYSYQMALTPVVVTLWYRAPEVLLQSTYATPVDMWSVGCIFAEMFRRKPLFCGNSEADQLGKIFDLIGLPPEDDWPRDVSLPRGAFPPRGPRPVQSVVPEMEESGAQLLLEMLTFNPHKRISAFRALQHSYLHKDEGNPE
T3 sequence (P24385 whole entry partner): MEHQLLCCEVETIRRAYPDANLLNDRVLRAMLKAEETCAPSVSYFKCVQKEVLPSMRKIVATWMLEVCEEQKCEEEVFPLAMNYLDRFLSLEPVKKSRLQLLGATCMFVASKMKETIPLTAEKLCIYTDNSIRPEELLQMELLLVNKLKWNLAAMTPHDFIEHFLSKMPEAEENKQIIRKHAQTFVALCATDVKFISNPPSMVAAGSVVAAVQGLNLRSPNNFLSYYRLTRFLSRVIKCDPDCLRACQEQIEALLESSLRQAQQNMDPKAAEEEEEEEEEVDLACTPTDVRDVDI

SMILES	IC50 (CDK2/CyclinE1; [1]) [nM]	IC50 (CDK6/CyclinD3; CDK6/CyclinD3, 300 μM ATP) [nM]	IC50 (CDK4/CyclinD1; CDK4/CyclinD1, 200 μM ATP) [nM]	also measured
CC(C)c1cnn2ccc(-c3ccnc(Nc4ccc(N5CCC(N(C)C)CC5)cn4)n3)cc12 (single isomer, unassigned) [Synthetic Example 161, N-[5-[4-(dimethylamino)-1-piperidyl]-2-pyridyl]-4-(3-isopropylpyrazolo[1,5-a]pyridin-5-yl)pyrimidin-2-amine]	< 10	< 10	< 10	IC50 (T47D breast cancer cells): < 100 nM
C=CC(=O)Nc1cc(Nc2ncc(F)c(-c3ccn4nc(C)c(C)c4c3)n2)c(OC)cc1N(C)CCN(C)C [Compound 10 disclosed in CN109503573A, reference compound]				IC50 (CDK6/CyclinD3; comparative compound): > 10000 nM; IC50 (CDK4/CyclinD1; comparative compound): > 10000 nM
CC(C)c1cnn2ccc(-c3nc(NC4CCN(S(C)(=O)=O)CC4)ncc3F)cc12 [Synthetic Example 10]	10 to 100	100 to 1000	10 to 100	IC50 (T47D breast cancer cells; Homo sapiens, T47D): 100 to 500 nM
CC(C)c1cnn2ccc(-c3ccnc(Nc4ccc(N5CCC(N(C)C)CC5=O)cn4)n3)cc12 (stereo not shown) [Synthetic Example 16]	10 to 100	< 10	< 10	
CCN1CCN(Cc2ccc(Nc3ncc(F)c(-c4cc5c(C(C)C)n(C)nc5cn4)n3)nc2)CC1 [Synthetic Example 58]		> 1000	100 to 1000	IC50 (T47D breast cancer cells; Homo sapiens, T47D): > 1000 nM
CCN1CCN(Cc2ccc(Nc3ncc(F)c(-c4cn5c(C(C)C)cnc5c(OC)n4)n3)nc2)CC1 [Synthetic Example 60]		100 to 1000	10 to 100	
COc1nc(-c2nc(Nc3ccc(N4CCN(CCS(C)(=O)=O)CC4=O)cn3)ncc2F)cc2c1nc(C)n2C(C)C [Synthetic Example 121]	> 1000	10 to 100	< 10	
COc1nc(-c2nc(Nc3ccc(N4CCN(C5CNC5)CC4=O)cn3)ncc2F)cc2c1nc(C)n2C(C)C [Synthetic Example 138]	100 to 1000	10 to 100	< 10	
CC(C)N1CCN(c2ccc(Nc3nccc(-c4cc5c(ncn5C(C)C)c(F)n4)n3)nc2)CC1 [Synthetic Example 287]	100 to 1000	10 to 100	< 10	
CC(C)c1cnn2ccc(-c3nc(Nc4ccc(N5CCOCC5=O)cn4)ncc3F)cc12 [compound 2]	< 10	10 to 100	< 10	IC50 (T47D breast cancer cells; Homo sapiens, T47D): < 100 nM
CC(C)c1cnn2ccc(-c3nc(Nc4ccc(CN5CCN6CCCC6C5)cn4)ncc3F)cc12 (stereo not shown) [compound 8]	> 1000	100 to 1000	10 to 100	IC50 (T47D breast cancer cells; Homo sapiens, T47D): > 1000 nM
CC(C)c1cnn2ccc(-c3nc(Nc4ccc(N5CCC(N(C)C)CC5)cn4)ncc3F)cc12 [compound 9]	100 to 1000	10 to 100	< 10	IC50 (T47D breast cancer cells; Homo sapiens, T47D): 100 to 500 nM
CC(C)c1cnn2ccc(-c3nc(Nc4ccc(N5CCOCC5)cn4)ncc3F)cc12 [compound 13]		10 to 100	10 to 100	IC50 (T47D breast cancer cells; Homo sapiens, T47D): 100 to 500 nM
O=C1COCCN1c1ccc(Nc2ncc(F)c(-c3ccn4ncc(C5=CCOCC5)c4c3)n2)nc1 [compound 17]		100 to 1000	10 to 100	
O=C1COCCN1c1ccc(Nc2ncc(F)c(-c3ccn4ncc(C5CCOCC5)c4c3)n2)nc1 [compound 18]		100 to 1000	10 to 100	IC50 (T47D breast cancer cells; Homo sapiens, T47D): 500 to 1000 nM
C=C(C)c1cnn2ccc(-c3nc(Nc4ccc(CN5CCN(CC)CC5)cn4)ncc3F)cc12 [compound 19]		100 to 1000	10 to 100	
CCN1CCN(Cc2ccc(Nc3ncc(F)c(-c4ccn5ncc(Br)c5c4)n3)nc2)CC1 [compound 20]		> 1000	100 to 1000	
CCN1CCN(Cc2ccc(Nc3ncc(F)c(-c4ccn5ncc(C(C)C)c5c4)n3)nc2)CC1 [compound 22]		10 to 100	< 10	
CC(C)c1cnn2ccc(-c3nc(Nc4ccc(N5CCOCC5=O)c(C(F)(F)F)c4)ncc3F)cc12 [compound 23]		10 to 100	10 to 100	IC50 (T47D breast cancer cells; Homo sapiens, T47D): 500 to 1000 nM

SMILES	IC50 (CDK2/CyclinE1; [1]) [nM]	IC50 (CDK6/CyclinD3; CDK6/CyclinD3, 300 μM ATP) [nM]	IC50 (CDK4/CyclinD1; CDK4/CyclinD1, 200 μM ATP) [nM]	also measured
CCN1CCN(Cc2cccc(Nc3ncc(F)c(-c4ccn5ncc(C(C)C)c5c4)n3)n2)CC1 [compound 24]		> 1000	100 to 1000	
CC(C)c1cnn2ccc(-c3ccnc(Nc4ccc(N5CCNCC5=O)nc4)n3)cc12 [compound 35]		10 to 100		
CCn1cnc2c(OC)nc(-c3nc(Nc4ccc(N5CCOCC5=O)cn4)ncc3F)cc21 [compound 84]				IC50 (CDK2/CyclinE1; [2]): > 1000 nM; IC50 (CDK6/CyclinD3; CDK6/CyclinD3): 100 to 1000 nM; IC50 (CDK4/CyclinD1; CDK4/CyclinD1): 10 to 100 nM
CCN1CCN(Cc2ccc(Nc3ncc(F)c(-c4cc5c(ncn5C(C)C)c(OC)n4)n3)nc2)CC1 [compound 87]				IC50 (CDK6/CyclinD3; CDK6/CyclinD3): 10 to 100 nM; IC50 (CDK4/CyclinD1; CDK4/CyclinD1): < 10 nM; IC50 (T47D breast cancer cells; Homo sapiens, T47D): 100 to 500 nM
COc1nc(-c2nc(Nc3ccc(N4CCOCC4=O)cc3F)ncc2F)cc2c1nc(C)n2C(C)C [compound 92]				IC50 (CDK2/CyclinE1; [2]): 10 to 100 nM; IC50 (CDK6/CyclinD3; CDK6/CyclinD3): 10 to 100 nM; IC50 (CDK4/CyclinD1; CDK4/CyclinD1): < 10 nM
CCN1CCN(Cc2ccc(Nc3ncc(F)c(-c4cc5c(nc(C)n5C(C)C)c(OC)n4)n3)nc2)CC1 [compound 95]				IC50 (CDK2/CyclinE1; [2]): > 1000 nM; IC50 (CDK6/CyclinD3; CDK6/CyclinD3): 10 to 100 nM; IC50 (CDK4/CyclinD1; CDK4/CyclinD1): 10 to 100 nM
COc1nc(-c2nc(Nc3ccc(CN4CCN5CCCC5C4)cn3)ncc2F)cc2c1nc(C)n2C(C)C (stereo not shown) [compound 101]				IC50 (CDK6/CyclinD3; CDK6/CyclinD3): 10 to 100 nM; IC50 (CDK4/CyclinD1; CDK4/CyclinD1): 10 to 100 nM
COc1nc(-c2nc(NC3CCN(S(C)(=O)=O)CC3)ncc2F)cc2c1nc(C)n2C(C)C [compound 102]				IC50 (CDK2/CyclinE1; [2]): 100 to 1000 nM; IC50 (CDK6/CyclinD3; CDK6/CyclinD3): 100 to 1000 nM; IC50 (CDK4/CyclinD1; CDK4/CyclinD1): 10 to 100 nM
COc1nc(-c2nc(Nc3ccc(N4CCN(C5CCNCC5)CC4=O)cn3)ncc2F)cc2c1nc(C)n2C(C)C [compound 139]	> 1000	< 10	< 10	
Cc1nn2ccc(-c3ccnc(Nc4ccc(N5CCC(N(C)C)CC5=O)cc4)n3)cc2c1C(C)C (stereo not shown) [compound 177]	< 10	< 10	< 10	
CC(C)c1cnn2ccc(-c3ccnc(Nc4ccc5c(c4)CS(=O)(=O)C5)n3)cc12 [compound 179]	< 10	< 10	< 10	
CC(C)c1cnn2ccc(-c3ccnc(Nc4ccc(N5CCC(O)CC5=O)cn4)n3)cc12 (stereo not shown) [compound 183]	10 to 100	10 to 100	10 to 100	
CNC1CCN(C(=O)c2ccc(Nc3nccc(-c4ccn5ncc(C(C)C)c5c4)n3)cc2)C1 (stereo not shown) [compound 189]		< 10	< 10	IC50 (CDK2/CyclinE1): < 10 nM
CC(C)c1cnn2ccc(-c3ccnc(Nc4ccc(N5CCC(C)(N)CC5=O)cc4F)n3)cc12 (stereo not shown) [compound 213]	< 10	10 to 100	< 10	
CC(C)c1cnn2ccc(-c3ccnc(Nc4ccc(N5CCNCC5=O)cc4F)n3)cc12 [compound 224]	< 10	10 to 100	< 10	
CC(C)(C)c1cnn2ccc(-c3ccnc(Nc4ccc(N5CCNCC5=O)cc4F)n3)cc12 [compound 225]	< 10	10 to 100	< 10	
Cc1nc2c(F)nc(-c3ccnc(Nc4ccc(S(N)(=O)=O)cc4)n3)cc2n1C(C)C [compound 288]	< 10	10 to 100	10 to 100	
CC(C)n1cnc2c(F)nc(-c3ccnc(Nc4ccc(N5CCC(C)(N)CC5=O)cc4F)n3)cc21 (stereo not shown) [compound 292]	< 10	< 10	< 10	
CC(C)n1cnc2c(F)nc(-c3ccnc(Nc4ccc(S(N)(=O)=O)cc4)n3)cc21 [compound 297]	< 10	10 to 100	< 10	
